In ChEMBL document CHEMBL6120949, “Fully Synthetic TF-Based Self-Adjuvanting Vaccine Simultaneously Triggers iNKT Cells and Mincle and Protects Mice against Tumor Development” (2024):
Active and inactive are the calls of the source. The rule behind the calls is not given here.

Experiments:
Mus musculus [1] = experiment: (§1) Antitumor activity in cyclophosphamide-treated surviving Balb/c mouse assessed as increase in IgG antibody titer compound administered as liposomes subcutaneously on day 0 in presence of TF followed by administration of booster doses on days 14, 21 and 28 and implantation of mouse TA3/Ha cells on day 35 measured upto 50 days post-tumor challenge followed by re-implantation of another mouse TA3/Ha cells measured for another 30 days post-tumor challenge by ELISA; format: functional, organism-based; conditions: route sc, time <= 115.0 day
Mus musculus [2] = experiment: (§2) Antitumor activity in cyclophosphamide-treated Balb/c mouse assessed as survival ratio compound administered as liposomes subcutaneously on day 0 in presence of TF followed by administration of booster doses on days 14, 21 and 28 and implantation of mouse TA3/Ha cells on day 35 measured upto 50 days post-tumor challenge relative to control; format: functional; conditions: route sc; time <= 85 day
Mus musculus [3] = experiment: Immunization of Balb/c mouse assessed as increase in kappa light chain titer compound administered as liposomes subcutaneously on day 0 in presence of TF followed by administration of booster doses on days 14, 21 and 28 measured on days 21, 27 and 38 by ELISA; format: functional, organism-based; conditions: route sc, time 38.0 day
[4] = target: T1, C-type lectin domain family 4 member E (Homo sapiens) (UniProt Q9ULY5); experiment: Binding affinity to Fc-fused human Mincle incubated for 1.5 hrs by ELISA
T1 sequence (whole entry): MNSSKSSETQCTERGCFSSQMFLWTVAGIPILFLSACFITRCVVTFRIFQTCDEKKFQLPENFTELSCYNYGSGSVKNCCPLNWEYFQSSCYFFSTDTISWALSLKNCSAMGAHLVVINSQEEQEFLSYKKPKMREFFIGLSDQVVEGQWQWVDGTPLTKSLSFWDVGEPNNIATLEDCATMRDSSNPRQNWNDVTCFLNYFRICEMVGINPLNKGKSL

Mus musculus [5] = experiment: Immunization of Balb/c mouse assessed as increase in IgG titer compound administered as liposomes subcutaneously on day 0 in presence of TF followed by administration of booster doses on days 14, 21 and 28 measured on days 21, 27 and 38 by ELISA; format: functional, organism-based; conditions: route sc, time 38.0 day
Mus musculus [6] = experiment: Immunization of Balb/c mouse assessed as IFN-gamma level compound administered as liposomes subcutaneously on day 0 in presence of TF followed by administration of booster doses on days 14, 21 and 28 measured on days 21, 27 and 38 by ELISA; format: functional; conditions: route sc; time 38 day
Mus musculus [7] = experiment: Immunization of Balb/c mouse assessed as increase in IFN-gamma level compound administered as liposomes subcutaneously on day 0 in presence of TF followed by administration of booster doses on days 14, 21 and 28 measured on days 21, 27 and 38 by ELISA; format: functional, organism-based; conditions: route sc, time 38.0 day
Mus musculus [8] = experiment: Immunization of Balb/c mouse assessed as increase in IgG2a titer compound administered as liposomes subcutaneously on day 0 in presence of TF followed by administration of booster doses on days 14, 21 and 28 measured on days 21, 27 and 38 by ELISA; format: functional, organism-based; conditions: route sc, time 38.0 day
Mus musculus [9] = experiment: as §2, with “protection against tumor development” for “survival ratio”, “challenge” for “challenge relative to control”; format: functional, organism-based; conditions: route sc, time <= 85.0 day
[10] = target: T2, Antigen-presenting glycoprotein CD1d1 (Mus musculus) (UniProt P11609); experiment: Binding affinity to His-tagged mouse CD1d incubated for 1.5 hrs by ELISA
T2 sequence (whole entry): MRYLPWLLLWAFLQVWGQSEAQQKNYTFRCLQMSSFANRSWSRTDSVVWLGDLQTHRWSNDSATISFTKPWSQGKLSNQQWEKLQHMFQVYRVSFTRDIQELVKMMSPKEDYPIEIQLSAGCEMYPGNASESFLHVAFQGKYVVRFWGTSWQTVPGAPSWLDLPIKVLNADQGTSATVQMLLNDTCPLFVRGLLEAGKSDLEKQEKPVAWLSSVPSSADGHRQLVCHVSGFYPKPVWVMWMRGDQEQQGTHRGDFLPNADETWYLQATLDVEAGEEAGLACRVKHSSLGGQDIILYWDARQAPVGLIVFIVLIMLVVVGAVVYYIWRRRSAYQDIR

MDA-MB-468 [11] = experiment: Cytotoxicity against TF-negative human MDA-MB-468 cells treated with anti-serum derived from compound-vaccinated mouse for 2 hrs followed by anti-serum washout and addition of rabbit complement serum measured after 1 hr by LDH assay; format: functional, cell-based
Mus musculus [12] = experiment: (§3) Antitumor activity in Balb/c mouse assessed as average survival time compound administered as liposomes subcutaneously on day 0 in presence of TF followed by administration of booster doses on days 14, 21 and 28 and implantation of mouse TA3/Ha cells on day 35 measured upto 50 days post-tumor challenge; format: functional; conditions: route sc; time <= 85 day
MDA-MB-468 [13] = experiment: Binding ability of anti-serum derived from compound-vaccinated mouse to TF-negative human MDA-MB-468 cells cultured with FITC-labeled anti-IgG Ab assessed as positive fluorescent peak shift by FACS analysis; format: functional, cell-based
Mus musculus [14] = experiment: as §2, with “in” for “in cyclophosphamide-treated”; format: functional; conditions: route sc; time <= 85 day
TA3/Ha [15] = experiment: Cytotoxicity against TF-positive mouse TA3/Ha cells treated with anti-serum derived from compound-vaccinated mouse for 2 hrs followed by anti-serum washout and addition of rabbit complement serum measured after 1 hr by LDH assay; format: functional, cell-based
TA3/Ha [16] = experiment: Binding ability of anti-serum derived from compound-vaccinated surviving mouse to TF-positive mouse TA3/Ha cells cultured with FITC-labeled anti-IgG Ab assessed as positive fluorescent peak shift by FACS analysis; format: functional, cell-based
4T1-Luc [17] = experiment: Cytotoxicity against TF-positive mouse 4T1-Luc cells treated with anti-serum derived from compound-vaccinated mouse for 2 hrs followed by anti-serum washout and addition of rabbit complement serum measured after 1 hr by LDH assay; format: functional, cell-based
Mus musculus [18] = experiment: as §1, with “cyclophosphamide-treated” for “cyclophosphamide-treated surviving”, “rejection of tumor” for “increase in IgG antibody titer”, “100” for “30”, “challenge” for “challenge by ELISA”; format: functional, organism-based; conditions: route sc, time 185.0 day
4T1-Luc [19] = experiment: Binding ability of anti-serum derived from compound-vaccinated mouse to TF-positive mouse 4T1-Luc cells cultured with FITC-labeled anti-IgG Ab assessed as positive fluorescent peak shift by FACS analysis; format: functional, cell-based
Mus musculus [20] = experiment: Immunization of Balb/c mouse assessed as decrease in TF-specific IgM titer compound administered as liposomes subcutaneously on day 0 in presence of TF followed by administration of booster doses on days 14, 21 and 28 measured on days 21, 27 and 38 by ELISA; format: functional, organism-based; conditions: route sc, time 38.0 day
Mus musculus [21] = experiment: as §3, with “activity in cyclophosphamide-treated Balb/c mouse” for “activity in Balb/c mouse”; format: functional; conditions: route sc; time <= 85 day
TA3/Ha [22] = experiment: Binding ability of anti-serum derived from compound-vaccinated mouse to TF-positive mouse TA3/Ha cells cultured with FITC-labeled anti-IgG Ab assessed as positive fluorescent peak shift by FACS analysis; format: functional, cell-based
Mus musculus [23] = experiment: Immunization of Balb/c mouse assessed as IgG titer compound administered as liposomes subcutaneously on day 0 in presence of TF followed by administration of booster doses on days 14, 21 and 28 measured on days 21, 27 and 38 by ELISA; format: functional; conditions: route sc; time 38 day

Compound | Activity (Mus musculus [1]) | Survival (Mus musculus [2]) | Activity (Mus musculus [3]) | Activity [4] | Activity (Mus musculus [5]) | Activity (Mus musculus [7]) | Activity (Mus musculus [9]) | Activity [10] | Activity (MDA-MB-468 [11]) | Activity (MDA-MB-468 [13]) | Activity (TA3/Ha [15]) | Activity (TA3/Ha [16]) | Activity (4T1-Luc [17]) | Activity (Mus musculus [18]) | Activity (4T1-Luc [19]) | Activity (Mus musculus [20]) | Time (Mus musculus [21]) | Activity (TA3/Ha [22]) | Activity (Mus musculus [23]) | also measured
CCCCCCCCCCCCCCCCCCCCCCCCCC(=O)N[C@@H](CO[C@H]1O[C@H](CNC(=O)CCCCC(=O)NCCCC[C@H](NC(=O)CCC(=O)NCCOCCO[C@H]2[C@H](O)[C@@H](O)[C@@H](O[C@H]3O[C@H](COC(=O)CC(CCCCCCCCC)CCCCCCCCC)[C@@H](O)[C@H](O)[C@H]3O)O[C@@H]2COC(=O)CC(CCCCCCCCC)CCCCCCCCC)C(=O)NCc2cn(CCO[C@H]3O[C@H](CO)[C@H](O)[C@H](O[C@@H]4O[C@H](CO)[C@H](O)[C@H](O)[C@H]4O)[C@H]3NC(C)=O)nn2)[C@H](O)[C@H](O)[C@H]1O)[C@H](O)[C@H](O)CCCCCCCCCCCCCC | Active; Exhibited Superior Effect | 75% | Active; Compound Induced Strong Tf-Specific And T-Cell-Dependent Immune Response | Active | Active | Active | Active | Active | inactive | inactive | Active; Result Reveals That The Anti-Serum Induced By Compound Effectively Activated The Complement System | Active | Active; Result Reveals That The Anti-Serum Induced By Compound Effectively Activated The Complement System | Active | Active; Compound-Derived Antibodies In Antiserum Exhibited Strongest Binding Activity | Active; Result Reveals That Efficient Conversion Of Igm To Igg Had Occurred And That Long-Term Secondary Immune Responses Had Been Triggered | 43.8 days | Active; Compound-Derived Antibodies In Antiserum Exhibited Strongest Binding Activity | 96611 | Activity (Mus musculus [6]): 263 pg/mL; Activity (Mus musculus [8]): Active; Time (Mus musculus [12]): 34.5 days; Survival (Mus musculus [14]): 37.5%
CCCCCCCCCC(CCCCCCCCC)CC(=O)OC[C@H]1O[C@H](O[C@H]2O[C@H](COC(=O)CC(CCCCCCCCC)CCCCCCCCC)[C@@H](OCCOCCNC(=O)CCC(=O)NCc3cn(CCO[C@H]4O[C@H](CO)[C@H](O)[C@H](O[C@@H]5O[C@H](CO)[C@H](O)[C@H](O)[C@H]5O)[C@H]4NC(C)=O)nn3)[C@H](O)[C@H]2O)[C@H](O)[C@@H](O)[C@@H]1O | Active | 50% | Active; Compound Induced Strong Tf-Specific And T-Cell-Dependent Immune Response | Active | Active | Active | Active | – | inactive | inactive | Active; Result Reveals That The Anti-Serum Induced By Compound Effectively Activated The Complement System | Active | Active; Result Reveals That The Anti-Serum Induced By Compound Effectively Activated The Complement System | Active | Active | Active; Result Reveals That Efficient Conversion Of Igm To Igg Had Occurred And That Long-Term Secondary Immune Responses Had Been Triggered | 38.8 days | Active | 66937 | –
CCCCCCCCCCCCCCCCCCCCCCCCCC(=O)N[C@@H](CO[C@H]1O[C@H](CNC(=O)CCCCC(=O)NCc2cn(CCO[C@H]3O[C@H](CO)[C@H](O)[C@H](O[C@@H]4O[C@H](CO)[C@H](O)[C@H](O)[C@H]4O)[C@H]3NC(C)=O)nn2)[C@H](O)[C@H](O)[C@H]1O)[C@H](O)[C@H](O)CCCCCCCCCCCCCC | Active | 37.5% | Active; Compound Induced Strong Tf-Specific And T-Cell-Dependent Immune Response | – | Active | Active | Active | Active | inactive | inactive | Active; Result Reveals That The Anti-Serum Induced By Compound Effectively Activated The Complement System | Active | Active; Result Reveals That The Anti-Serum Induced By Compound Effectively Activated The Complement System | Active | Active | Active; Result Reveals That Efficient Conversion Of Igm To Igg Had Occurred And That Long-Term Secondary Immune Responses Had Been Triggered | 34.4 days | Active | 54112 | –
